Experimental data as given in ChEMBL document CHEMBL1201862, “PubChem BioAssay data set” (2004).
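Test compounds were applied to cells in 96-well plates for 48 hours at 5 doses. GI50 = concentration required for 50% inhibition of growth.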 Activity calls are given as the source filed them. Cut-off read from the data, not from the text of the source: active = GI50 up to about 1.1 µM and inactive = higher.

Legend:
Assay in all cases: inhibition of tumour cell growth, NCI panel, 48 h
RPMI-8226 = system: RPMI-8226
UACC-62 = system: UACC-62
NCI-H460 = system: NCI-H460
MDA-MB-231 = system: MDA-MB-231
T47D = system: T47D
EKVX = system: EKVX
SNB-75 = system: SNB-75
Hs-578T = system: Hs-578T
IGROV-1 = system: IGROV-1
SNB-19 = system: SNB-19
MCF7 = system: MCF7
MDA-MB-435 = system: MDA-MB-435
HOP-92 = system: HOP-92
HOP-62 = system: HOP-62
SF-268 = system: SF-268
HCT-15 = system: HCT-15
OVCAR-4 = system: OVCAR-4
ACHN = system: ACHN
SR = system: SR
NCI/ADR-RES = system: NCI/ADR-RES

Structure (SMILES): CC(C)=CCC/C(C)=C/CC/C(C)=C/CC/C(C)=C/CC/C(C)=C/CC/C(C)=C/CC/C(C)=C/CC/C(C)=C/CC/C(C)=C/CO [SOLANESOL]
- GI50 (RPMI-8226): > 100 µM (inactive)
- GI50 (UACC-62): > 100 µM (inactive)
- GI50 (NCI-H460): > 100 µM (inactive)
- GI50 (MDA-MB-231): > 100 µM (inactive)
- GI50 (T47D): > 100 µM (inactive)
- GI50 (EKVX): > 100 µM (inactive)
- GI50 (SNB-75): > 100 µM (inactive)
- GI50 (Hs-578T): > 100 µM (inactive)
- GI50 (IGROV-1): > 100 µM (inactive)
- GI50 (SNB-19): > 100 µM (inactive)
- GI50 (MCF7): 87.7 µM (inactive)
- GI50 (MDA-MB-435): > 100 µM (inactive)
- GI50 (HOP-92): > 100 µM (inactive)
- GI50 (HOP-62): > 100 µM (inactive)
- GI50 (SF-268): > 100 µM (inactive)
- GI50 (HCT-15): > 100 µM
- GI50 (OVCAR-4): > 100 µM (inactive)
- GI50 (ACHN): > 100 µM (inactive)
- GI50 (SR): > 100 µM (inactive)

Structure (SMILES): CC1(C)[C@@H](Cn2cc(I)c(=O)[nH]c2=O)CC[C@@]1(C)CO
- GI50 (UACC-62): > 100 µM (inactive)
- GI50 (MDA-MB-231): > 100 µM (inactive)
- GI50 (T47D): > 100 µM (inactive)
- GI50 (EKVX): > 100 µM (inactive)
- GI50 (SNB-75): 40.3 µM (inactive)
- GI50 (Hs-578T): > 100 µM (inactive)
- GI50 (SNB-19): > 100 µM (inactive)
- GI50 (MDA-MB-435): > 100 µM (inactive)
- GI50 (HOP-92): > 100 µM (inactive)
- GI50 (HOP-62): > 100 µM (inactive)
- GI50 (SF-268): > 100 µM (inactive)
- GI50 (HCT-15): > 100 µM
- GI50 (NCI/ADR-RES): > 100 µM (inactive)
- GI50 (OVCAR-4): > 100 µM (inactive)
- GI50 (ACHN): > 100 µM (inactive)

Structure (SMILES): Clc1ccc2c(NCCNC3CCCCC3)ccnc2c1
- GI50 (RPMI-8226): 3.44 µM (inactive)
- GI50 (UACC-62): 4.28 µM (inactive)
- GI50 (MDA-MB-231): 9.62 µM (inactive)
- GI50 (T47D): 4.2 µM (inactive)
- GI50 (EKVX): 3.31 µM (inactive)
- GI50 (SNB-75): 4.63 µM (inactive)
- GI50 (Hs-578T): 2.54 µM (inactive)
- GI50 (IGROV-1): 11.8 µM (inactive)
- GI50 (SNB-19): 15.9 µM (inactive)
- GI50 (MCF7): 4.53 µM (inactive)
- GI50 (MDA-MB-435): 3.04 µM (inactive)
- GI50 (HOP-92): 5.56 µM (inactive)
- GI50 (HOP-62): 11.9 µM (inactive)
- GI50 (SF-268): 9.64 µM (inactive)
- GI50 (HCT-15): 5.4 µM
- GI50 (NCI/ADR-RES): 11.4 µM (inactive)
- GI50 (OVCAR-4): 11.6 µM (inactive)
- GI50 (ACHN): 12.5 µM (inactive)

Structure (SMILES): Cc1cc2nc3c(N)nn(CCCN(C)C)c3nc2cc1C
- GI50 (RPMI-8226): > 100 µM (inactive)
- GI50 (UACC-62): 95.7 µM (inactive)
- GI50 (NCI-H460): 80.5 µM (inactive)
- GI50 (MDA-MB-231): 60.5 µM (inactive)
- GI50 (T47D): > 100 µM (inactive)
- GI50 (EKVX): > 100 µM (inactive)
- GI50 (SNB-75): > 100 µM (inactive)
- GI50 (Hs-578T): > 100 µM (inactive)
- GI50 (SNB-19): > 100 µM (inactive)
- GI50 (MCF7): 33.4 µM (inactive)
- GI50 (MDA-MB-435): 90.8 µM (inactive)
- GI50 (HOP-62): > 100 µM (inactive)
- GI50 (SF-268): > 100 µM (inactive)
- GI50 (HCT-15): > 100 µM
- GI50 (NCI/ADR-RES): 59.7 µM (inactive)
- GI50 (OVCAR-4): > 100 µM (inactive)
- GI50 (ACHN): 60.3 µM (inactive)

Structure (SMILES): COc1cc(C)cc2c1c(=O)c1ccccc1n2C
- GI50 (RPMI-8226): 19.7 µM (inactive)
- GI50 (UACC-62): 33.7 µM (inactive)
- GI50 (NCI-H460): 32.7 µM (inactive)
- GI50 (MDA-MB-231): 53.5 µM (inactive)
- GI50 (EKVX): 55.3 µM (inactive)
- GI50 (SNB-75): 41.7 µM (inactive)
- GI50 (Hs-578T): 48.3 µM (inactive)
- GI50 (IGROV-1): 42.1 µM (inactive)
- GI50 (SNB-19): 54.8 µM (inactive)
- GI50 (MCF7): 16.4 µM (inactive)
- GI50 (MDA-MB-435): 35.4 µM (inactive)
- GI50 (HOP-92): 31.4 µM (inactive)
- GI50 (HOP-62): 41.4 µM (inactive)
- GI50 (SF-268): 49.7 µM (inactive)
- GI50 (HCT-15): 36.4 µM
- GI50 (NCI/ADR-RES): 33.8 µM (inactive)
- GI50 (OVCAR-4): 35.3 µM (inactive)
- GI50 (ACHN): 36 µM (inactive)
- GI50 (SR): 22.1 µM (inactive)

Structure (SMILES): O=C1OC(c2ccc(Cl)c3ccccc23)c2ccccc21 (configuration not stated)
- GI50 (RPMI-8226): > 100 µM (inactive)
- GI50 (UACC-62): 63.2 µM (inactive)
- GI50 (NCI-H460): > 100 µM (inactive)
- GI50 (EKVX): > 100 µM (inactive)
- GI50 (SNB-75): 6.07 µM (inactive)
- GI50 (IGROV-1): > 100 µM (inactive)
- GI50 (SNB-19): > 100 µM (inactive)
- GI50 (HOP-92): > 100 µM (inactive)
- GI50 (HOP-62): > 100 µM (inactive)
- GI50 (SF-268): > 100 µM (inactive)
- GI50 (HCT-15): 90.4 µM
- GI50 (OVCAR-4): 63.5 µM (inactive)
- GI50 (ACHN): > 100 µM (inactive)
- GI50 (SR): > 100 µM (inactive)

Structure (SMILES): C[C@H](O)C1CC(Cn2nnc3c(N)ncnc32)C1(C)C (some centres not stated)
- GI50 (UACC-62): 5.36 µM (inactive)
- GI50 (MDA-MB-231): > 100 µM (inactive)
- GI50 (T47D): > 100 µM (inactive)
- GI50 (EKVX): > 100 µM (inactive)
- GI50 (SNB-75): > 100 µM (inactive)
- GI50 (Hs-578T): > 100 µM (inactive)
- GI50 (SNB-19): > 100 µM (inactive)
- GI50 (MCF7): > 100 µM (inactive)
- GI50 (MDA-MB-435): > 100 µM (inactive)
- GI50 (HOP-92): > 100 µM (inactive)
- GI50 (HOP-62): > 100 µM (inactive)
- GI50 (SF-268): > 100 µM (inactive)
- GI50 (HCT-15): > 100 µM
- GI50 (NCI/ADR-RES): > 100 µM (inactive)
- GI50 (OVCAR-4): > 100 µM (inactive)
- GI50 (ACHN): > 100 µM (inactive)

Structure (SMILES): O=C1c2c(O)cccc2Cc2cc(CO)cc(O)c21
- GI50 (RPMI-8226): 0.743 µM (active)
- GI50 (UACC-62): 2.09 µM (inactive)
- GI50 (NCI-H460): 0.619 µM (active)
- GI50 (MDA-MB-231): 2.3 µM (inactive)
- GI50 (T47D): 2.96 µM (inactive)
- GI50 (EKVX): 3.03 µM (inactive)
- GI50 (SNB-75): 1.05 µM (active)
- GI50 (IGROV-1): 4.03 µM (inactive)
- GI50 (SNB-19): 2.49 µM (inactive)
- GI50 (MCF7): 2.58 µM (inactive)
- GI50 (MDA-MB-435): 2.67 µM (inactive)
- GI50 (HOP-92): 1.61 µM (inactive)
- GI50 (HOP-62): 3.01 µM (inactive)
- GI50 (SF-268): 2.05 µM (inactive)
- GI50 (HCT-15): 3.22 µM
- GI50 (NCI/ADR-RES): 3.59 µM (inactive)
- GI50 (OVCAR-4): 1.07 µM (active)
- GI50 (ACHN): 2.94 µM (inactive)
- GI50 (SR): 2.82 µM (inactive)
